Data set [1] can be described thus: Pharmacokinetics after 21 days dosing in the efficacy study (plasma, tumor and brain concentrations; plasma AUC at steady state), Example 14. The data set is classed as in vivo, female BALB/c nude mice. The procedure:
Agents were tested in the A375 human melanoma xenografts. Compound 26 and Compound 141 were administered to BALB/c nude mice bearing A375 tumors from PG-DO and dosed via PO twice a day (BID) or third a day (TIP) or dosed P daily (QD) from PG-D. Dabrafenib was administered to BALB/c nude mice bearing A375 tumors from PG-D1 and dosed via P daily (QD). Compound 26 was dosed at 1.5 mg/kg (QD), 2 mg/kg (TID), 3 mg/kg (BID), 6 mg/kg (QD) and 10 mg/kg (BID) for 21 days. Compound 141 was dosed at 0.75 mg/kg (BID), 1 mg/kg (TID), 1.5 mg/kg (BID), 3 mg/kg (QD) and 5 mg/kg (BID) for 21 days. Dabrafenib was dosed at 100 mg/kg for 21 days. This study was non-GLP.
The plasma samples were collected at predetermined time points for PK analysis. For non-termination plasma collection: the blood samples were collected into the 1.5 mL Eppendorf tubes containing 3 μL of 0.5 M EDTA-K2. And then the anticoagulant blood samples were centrifuged at 2,500 g at 4° C. for 15 minutes. For termination plasma collection: the mice was euthanized at predetermined time points post the treatment, the blood samples were collected into the 1.5 mL Eppendorf tubes containing 15 μL of 0.5 M EDTA-K2. And then the anticoagulant blood samples were centrifuged at 2,500 g at 4° C. for 15 minutes. The plasma samples were separated into 2 aliquots. The 1st was used for PK analysis, and the 2nd was served as backup.
The tumor samples were collected at predetermined time points for PK and WB analysis. The tumor was dissected out and split into 3 parts. The 1st part was used for PK analysis, the 2nd part was used for WB analysis and the last one was used as backup for the study. The samples were transferred into pre-labeled tubes and quickly froze in liquid nitrogen within 2 minutes after dissection. The samples were stored at −80° C. before analysis.
The brain samples were collected at predetermined time points for PK and potential WB analysis. The brain was dissected out and split into 3 parts (left brain, right brain upper and right brain lower), the left brain was used for PK, the right brain upper was used for WB and the last one was used as the backup for the study. The samples were transferred into pre-labeled tubes and quickly froze in liquid nitrogen within 2 minutes after dissection. The samples were stored at −80° C. before analysis.
The harvested plasma and tumor samples were processed for pharmacokinetics analysis by LC-MS/MS with a concentration range of 1.00-1,000 ng/mL for dabrafenib in plasma and 0.0500-50 ng/mL in tumor and brain homogenate, 5.00-10,000 ng/mL for Compound 141 in plasma and 0.200~200 ng/ml in tumor and brain homogenate. 20.0~20,000 ng/mL for Compound 26 in plasma and 0.5~500 ng/mL for Compound 26 tumor and brain homogenate.
Dabrafenib, Compound 26 and Compound 141 in female BALB/c nude mice plasma (K2-EDTA), tumor and brain homogenate were analyzed by LC-MS/MS (Triple Quad 6500+ Low Mass). Verapamil (5 ng/mL) in acetonitrile: methanol (V: V=95:5) was used as the internal standard for Dabrafenib, Compound 26 and Compound 141 in plasma. Verapamil (0.5 ng/mL) in acetonitrile: methanol (V: V=95:5) was used as the internal standard for Dabrafenib, Compound 26 and Compound 141 in tumor and brain homogenate.
An aliquot of 10 μL unknown sample, calibration standard, quality control, dilute quality control, single blank and double blank samples were added to the 96-well plate. Each sample for Dabrafenib, Compound 26 and Compound 141 in plasma (except the double blank) was quenched with 200 μL IS respectively (double blank sample was quenched with 200 μL ACN: MeOH (V: V=95:5)); each sample for Dabrafenib, Compound 26 and Compound 141 in tumor and brain(except the double blank) was quenched with 100 μL IS respectively (double blank sample was quenched with 100 μL ACN: MeOH (V: V=95:5)); and then the mixture was vortex-mixed for 5 min at 800 rpm and centrifuged for 15 min at 3220 g (4000 rpm), 4° C. […]

A short description of data set [2]: Example 9 pharmacokinetics assay for efficacy study Part I and II (plasma, liver). It counts as in vivo, BALB/c nude mice. The following applies: mouse, po, 100 mg/kg, p.o., QD × 14 days, 6 h following last treatment, ± SEM. As to the method:
For efficacy study Part I, agents were tested in the A375 human melanoma xenografts. Compound 218 and Compound 157 were administered to BALB/c nude mice bearing A375 xenografts from day 0 and dosed twice a day (BID) for 14 days. Compound 218 and Compound 157 were dosed at 10 mg/kg via p.o.. Dabrafenib was administered from day 1 daily (QD) for 14 days and dosed at 100 mg/kg via p.o..
For efficacy study Part II, agents were tested in the A375 human melanoma xenografts model. Compound 133, Compound 144 and Compound 198 were administered to BALB/c nude mice bearing A375 xenografts from day 0 and dosed twice a day (BID) for 14 days. Compound 133, Compound 144 and Compound 198 were dosed at 10 mg/kg via p.o..
The plasma samples were collected at predetermined time points for PK analysis. The mice were euthanized at predetermined time points post the treatment. The blood samples were collected into the 1.5 mL Eppendorf tubes containing 15 μL of 0.5 M EDTA-K2. And then the anticoagulant blood samples were centrifuged at 2,500 g at 4° C. for 15 minutes. The plasma samples were separated into 2 aliquots. The 1st was used for PK analysis, and the 2nd served as backup. The samples were stored at −80° C. before bioanalysis.
Liver samples were collected at predetermined time points for PK analysis. The left lobe of the liver was dissected out and split into 2 parts. The 1st part was used for PK analysis and the 2nd part served as the backup for the study. The samples were transferred into pre-labeled tubes and quickly froze in liquid nitrogen within 2 minutes after dissection. The samples were stored at −80° C. before bioanalysis.
The harvested plasma and liver samples were processed for pharmacokinetics analysis by LC-MS/MS with a concentration range of 1.00-1,000 ng/mL for Dabrafenib in plasma and liver homogenate, 10.0-10,000 ng/mL for Compound 218, Compound 157, Compound 133, Compound 144 and Compound 198 in plasma and liver homogenate.

Like-named read-outs stand apart in the source and are kept apart here.

Usually AUC stands for the area under the concentration-time curve, a measure of exposure.

In the case of `CC(C)(C)c1nc(-c2cccc(NS(=O)(=O)c3c(F)cccc3F)c2F)c(-c2ccnc(N)n2)s1` [Dabrafenib, dabrafenib, reference compound], the “Concentration in Brain” value in data set [1] (100 mg/kg p.o. QD x 21 days, 24 h, BQL: below the lower limit of quantitation) is “BQL^a”. For the same molecule, the concentration at 4 h in data set [1] (mouse, brain, po, 100 mg/kg p.o. QD x 21 days, mean ± SEM, read-out: Concentration in Brain) was 3.59 ± 0.558 ng/g; in data set [1] (mouse, plasma, po, 100 mg/kg p.o. QD x 21 days, mean ± SEM, read-out: Concentration in Plasma), 54.4 ± 7.02 ng/mL; in data set [1] (mouse, tumor, po, 100 mg/kg p.o. QD x 21 days, mean ± SEM, read-out: Concentration in Tumor) it was 137 ± 7.51 ng/g. The molecule further gave a concentration at 0.25 h in data set [1] (mouse, plasma, po, 100 mg/kg p.o. QD x 21 days, 0.25 h, mean ± SEM) of 38700 ± 2110 ng/mL. Also, the concentration at 0.5 h in data set [1] (mouse, plasma, po, 100 mg/kg p.o. QD x 21 days, 0.5 h, mean ± SEM) was determined as 25700 ± 5690 ng/mL. In data set [1] (mouse, plasma, po, 100 mg/kg p.o. QD x 21 days, 1 h, mean ± SEM), the concentration at 1 h was 3270 ± 443 ng/mL. Besides, the concentration at 2 h in data set [1] (mouse, plasma, po, 100 mg/kg p.o. QD x 21 days, 2 h, mean ± SEM) was 444 ± 129 ng/mL. The molecule also had a concentration at 8 h in data set [1] (mouse, plasma, po, 100 mg/kg p.o. QD x 21 days, 8 h, mean ± SEM) of 55.4 ± 4.19 ng/mL. In addition, the concentration at 10 h in data set [1] (mouse, plasma, po, 100 mg/kg p.o. QD x 21 days, 10 h, mean ± SEM) came to 24 ± 6.86 ng/mL. Also, the concentration at 24 h is 2.27 ng/mL in data set [1] (mouse, plasma, po, 100 mg/kg p.o. QD x 21 days, 24 h, read-out: Concentration in Plasma) and 1.43 ± 0.191 ng/g in data set [1] (mouse, tumor, po, 100 mg/kg p.o. QD x 21 days, 24 h, mean ± SEM, read-out: Concentration in Tumor). Besides, the AUC in data set [1] (mouse, plasma, po, 100 mg/kg p.o. QD × 21 days, read-out: Plasma AUC at steady state (Day 21), Average) was 18100 ng·h/mL. Further, the concentration at 6 h in data set [2] (liver, read-out: Mean Concentration in Liver) amounted to 1240 ± 162 ng/g; in data set [2] (plasma, read-out: Mean Concentration in Plasma) it was 410 ± 58.2 ng/mL.

For the origin of these results see patent US20260297060A1, “COMPOUNDS FOR THE DEGRADATION OF MUTANT BRAF” (C4 THERAPEUTICS, INC., priority 2023, published 2026).
